Reference: patent US12077503B2, “Substituted cyclic amides and their use as herbicides” (FMC CORPORATION, priority 2015, dated 2024)

Columns and labels:
Format in all cases: in vivo
[1] = tested on: barnyardgrass (Echinochloa crus-galli); test: Test G Pre-Emergence Protocol; settings: Echinochloa crus-galli, pre-emergence, 312 h, evaluated after 13 days
Method in brief: (§1)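 Under a 24/16° C day/night regime with 14 h light and 65% humidity, sown pots were sprayed after one day with compound (15.625, 62.5 or 250 g/ha; 50:50 acetone/water, 0.5% Tween 20). Damage was assessed visually 13 days later, 0 to 100.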

corn (Zea mays) [2] = test: Test G Pre-Emergence Protocol; settings: Zea mays, pre-emergence, 312 h, evaluated after 13 days
Method in brief: as §1

[3] = tested on: giant foxtail (Setaria faberi); test: Test G Pre-Emergence Protocol; settings: Setaria faberi, pre-emergence, 312 h, evaluated after 13 days
Method in brief: as §1

[4] = tested on: ivy-leaved morning glory (Ipomoea hederacea); test: Test G Pre-Emergence Protocol; settings: Ipomoea, pre-emergence, 312 h, evaluated after 13 days
Method in brief: as §1

[5] = tested on: redroot pigweed (Amaranthus retroflexus); test: Test G Pre-Emergence Protocol; settings: Amaranthus retroflexus, pre-emergence, 312 h, evaluated after 13 days
Method in brief: as §1

[6] = tested on: velvetleaf (Abutilon theophrasti); test: Test G Pre-Emergence Protocol; settings: Abutilon theophrasti, pre-emergence, 312 h, evaluated after 13 days
Method in brief: as §1

[7] = tested on: barnyardgrass (Echinochloa crus-galli); test: Test G Post-Emergence Protocol; settings: Echinochloa crus-galli, post-emergence, 312 h
Method in brief: (§2)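 Sow in soil; grow 8 d (24/16 °C, 14 h light, 65% humidity); spray 15.625/62.5/250 g/ha in acetone:water 50:50 + 0.5% Tween 20; grow on, water twice daily; score damage 0–100 at 13 d.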

corn (Zea mays) [8] = test: Test G Post-Emergence Protocol; settings: Zea mays, post-emergence, 312 h
Method in brief: as §2

[9] = tested on: giant foxtail (Setaria faberi); test: Test G Post-Emergence Protocol; settings: Setaria faberi, post-emergence, 312 h
Method in brief: as §2

[10] = tested on: ivy-leaved morning glory (Ipomoea hederacea); test: Test G Post-Emergence Protocol; settings: Ipomoea, post-emergence, 312 h
Method in brief: as §2

[11] = tested on: redroot pigweed (Amaranthus retroflexus); test: Test G Post-Emergence Protocol; settings: Amaranthus retroflexus, post-emergence, 312 h
Method in brief: as §2

[12] = tested on: velvetleaf (Abutilon theophrasti); test: Test G Post-Emergence Protocol; settings: Abutilon theophrasti, post-emergence, 312 h
Method in brief: as §2

Cc1cc(NC(=O)[C@@H]2C(=O)N(C)C[C@H]2c2ccc(C(F)(F)F)cc2)ccn1 (racemic) [Compound 1600]
0%: pest or weed control at 15.625 g/ha ([1]; 15.625 g ai/ha, read-out: Barnyard grass damage rating (100=total damage to plant; 0=no damage to plant)) | pest or weed control at 62.5 g/ha ([1]; 62.5 g ai/ha, 100=total damage to plant, 0=no damage to plant, read-out: plant damage rating, Barnyardgrass) | pest or weed control at 250 g/ha ([1]; 250 g ai/ha, read-out: Barnyardgrass damage rating (100=total damage to plant; 0=no damage to plant)) | plant injury at 15.625 g/ha (corn (Zea mays) [2]; 15.625 g ai/ha, read-out: Corn damage rating (100=total damage to plant; 0=no damage to plant)) | plant injury at 62.5 g/ha (corn (Zea mays) [2]; 62.5 g ai/ha, 100=total damage to plant, 0=no damage to plant, read-out: plant damage rating, Corn) | plant injury at 250 g/ha (corn (Zea mays) [2]; 250 g ai/ha, read-out: Corn damage rating (100=total damage to plant; 0=no damage to plant)) | pest or weed control at 15.625 g/ha ([3]; 15.625 g ai/ha, read-out: Foxtail, Giant damage rating (100=total damage to plant; 0=no damage to plant)) | pest or weed control at 62.5 g/ha ([3]; 62.5 g ai/ha, 100=total damage to plant, 0=no damage to plant, read-out: plant damage rating, Foxtail, Giant) | pest or weed control at 250 g/ha ([3]; 250 g ai/ha, read-out: Foxtail, Giant damage rating (100=total damage to plant; 0=no damage to plant)) | pest or weed control at 15.625 g/ha ([4]; 15.625 g ai/ha, read-out: Morning-glory, Ivy-leaved damage rating (100=total damage to plant; 0=no damage to plant)) | pest or weed control at 62.5 g/ha ([4]; 62.5 g ai/ha, 100=total damage to plant, 0=no damage to plant, read-out: plant damage rating, Morningglory, Ivy-leaved) | pest or weed control at 250 g/ha ([4]; 250 g ai/ha, read-out: Morningglory, Ivy-leaved damage rating (100=total damage to plant; 0=no damage to plant)) | pest or weed control at 15.625 g/ha ([5]; 15.625 g ai/ha, read-out: Pigweed, Redroot damage rating (100=total damage to plant; 0=no damage to plant)) | pest or weed control at 62.5 g/ha ([5]; 62.5 g ai/ha, 100=total damage to plant, 0=no damage to plant, read-out: plant damage rating, Pigweed, Redroot) | pest or weed control at 250 g/ha ([5]; 250 g ai/ha, read-out: Pigweed, Redroot damage rating (100=total damage to plant; 0=no damage to plant)) | pest or weed control at 15.625 g/ha ([6]; 15.625 g ai/ha, read-out: Velvetleaf damage rating (100=total damage to plant; 0=no damage to plant)) | pest or weed control at 62.5 g/ha ([6]; 62.5 g ai/ha, 100=total damage to plant, 0=no damage to plant, read-out: plant damage rating, Velvetleaf) | pest or weed control at 250 g/ha ([6]; 250 g ai/ha, read-out: Velvetleaf damage rating (100=total damage to plant; 0=no damage to plant)) | pest or weed control at 15.625 g/ha ([7]; 15.625 g ai/ha, evaluated after 13 days (100=total damage to plant; 0=no damage to plant), read-out: Barnyardgrass damage rating) | pest or weed control at 62.5 g/ha ([7]; 62.5 g ai/ha, evaluated after 13 days, read-out: Barnyardgrass damage rating (100=total damage to plant; 0=no damage to plant)) | pest or weed control at 250 g/ha ([7]; 250 g ai/ha, evaluated after 13 days, read-out: damage to plant, Barnyardgrass (100=total damage to plant; 0=no damage to plant)) | plant injury at 15.625 g/ha (corn (Zea mays) [8]; 15.625 g ai/ha, evaluated after 13 days (100=total damage to plant; 0=no damage to plant), read-out: Corn damage rating) | plant injury at 62.5 g/ha (corn (Zea mays) [8]; 62.5 g ai/ha, evaluated after 13 days, read-out: Corn damage rating (100=total damage to plant; 0=no damage to plant)) | plant injury at 250 g/ha (corn (Zea mays) [8]; 250 g ai/ha, evaluated after 13 days, read-out: damage to plant, Corn (100=total damage to plant; 0=no damage to plant)) | pest or weed control at 15.625 g/ha ([9]; 15.625 g ai/ha, evaluated after 13 days (100=total damage to plant; 0=no damage to plant), read-out: Foxtail, Giant damage rating) | pest or weed control at 62.5 g/ha ([9]; 62.5 g ai/ha, evaluated after 13 days, read-out: Foxtail, Giant damage rating (100=total damage to plant; 0=no damage to plant)) | pest or weed control at 250 g/ha ([9]; 250 g ai/ha, evaluated after 13 days, read-out: damage to plant, Foxtail, Giant (100=total damage to plant; 0=no damage to plant)) | pest or weed control at 15.625 g/ha ([10]; 15.625 g ai/ha, evaluated after 13 days (100=total damage to plant; 0=no damage to plant), read-out: Morningglory, Ivy-leaved damage rating) | pest or weed control at 62.5 g/ha ([10]; 62.5 g ai/ha, evaluated after 13 days, read-out: Morningglory, Ivy-leaved damage rating (100=total damage to plant; 0=no damage to plant)) | pest or weed control at 250 g/ha ([10]; 250 g ai/ha, evaluated after 13 days, read-out: damage to plant, Morningglory, Ivy-leaved (100=total damage to plant; 0=no damage to plant)) | pest or weed control at 15.625 g/ha ([11]; 15.625 g ai/ha, evaluated after 13 days (100=total damage to plant; 0=no damage to plant), read-out: Pigweed, Redroot damage rating) | pest or weed control at 62.5 g/ha ([11]; 62.5 g ai/ha, evaluated after 13 days, read-out: Pigweed, Redroot damage rating (100=total damage to plant; 0=no damage to plant)) | pest or weed control at 250 g/ha ([11]; 250 g ai/ha, evaluated after 13 days, read-out: damage to plant, Pigweed, Redroot (100=total damage to plant; 0=no damage to plant)) | pest or weed control at 15.625 g/ha ([12]; 15.625 g ai/ha, evaluated after 13 days (100=total damage to plant; 0=no damage to plant), read-out: Velvetleaf damage rating) | pest or weed control at 62.5 g/ha ([12]; 62.5 g ai/ha, evaluated after 13 days, read-out: Velvetleaf damage rating (100=total damage to plant; 0=no damage to plant)) | pest or weed control at 250 g/ha ([12]; 250 g ai/ha, evaluated after 13 days, read-out: damage to plant, Velvetleaf (100=total damage to plant; 0=no damage to plant))
